From PubChem BioAssay AID194 (DTP/NCI, 2004) come the findings set out here.

Where “and” joins values, the source holds several entries; their conditions need not be identical. Equal entries are not always repeated. Inconclusive results are not listed.

This test concerns BDF1 mice, B16 melanoma s.c., survival/tumor T/C. Nature of the test: NCI In Vivo Anticancer Drug Screen. Data for tumor model B16 Melanoma (subcutaneous) in B6D2F1 (BDF1) mice. Here is the method: The antitumor activity of compounds was measured in mice bearing transplantable tumors. Survival or tumor size were measured and the results are expressed as the measurement made in the treated group (T) divided by the measurement made in the vehicle treated control group (C). The tumor model used in this assay is B16 Melanoma (subcutaneous) in B6D2F1 (BDF1) mice

Where [1] appears, read: endpoint: median survival time, dose: 12.5 mg/kg/injection, schedule: Q01DX009 (ip), vehicle: Klucel (hydroxypropylcellulose) (HPC), higher = longer survival.
Where [2] appears, read: endpoint: median survival time, dose: 25.0 mg/kg/injection, schedule: Q01DX009 (ip), vehicle: saline with Tween-80, higher = longer survival.
Where [3] appears, read: endpoint: median survival time, dose: 50.0 mg/kg/injection, schedule: Q01DX009 (ip), vehicle: saline with Tween-80, higher = longer survival.
The mark [4] stands for this setting: endpoint: median survival time, dose: 100.0 mg/kg/injection, schedule: Q01DX009 (ip), vehicle: saline with Tween-80, higher = longer survival.
[5] abbreviates: endpoint: median tumor weight (est.), dose: 25.0 mg/kg/injection, schedule: Q01DX009 (ip), vehicle: saline with Tween-80, higher = larger tumour.
Setting [6] is: endpoint: median tumor weight (est.), dose: 50.0 mg/kg/injection, schedule: Q01DX009 (ip), vehicle: saline with Tween-80, higher = larger tumour.
Setting [7] is: endpoint: median tumor weight (est.), dose: 50.0 mg/kg/injection, schedule: Q01DX009 (ip), vehicle: Klucel (hydroxypropylcellulose) (HPC), higher = larger tumour.
[8] abbreviates: endpoint: median survival time, dose: 50.0 mg/kg/injection, schedule: Q01DX009 (ip), vehicle: Klucel (hydroxypropylcellulose) (HPC), higher = longer survival.
The mark [9] stands for this setting: endpoint: median survival time, dose: 400.0 mg/kg/injection, schedule: Q01DX009 (ip), vehicle: saline with Tween-80, higher = longer survival.
[10] abbreviates: endpoint: median tumor weight (est.), dose: 100.0 mg/kg/injection, schedule: Q01DX009 (ip), vehicle: saline with Tween-80, higher = larger tumour.
Setting [11] is: endpoint: median survival time, dose: 100.0 mg/kg/injection, schedule: Q01DX009 (ip), vehicle: Klucel (hydroxypropylcellulose) (HPC), higher = longer survival.
[12] abbreviates: endpoint: median survival time, dose: 50.0 mg/kg/injection, schedule: Q01DX009 (ip), vehicle: water, higher = longer survival.
Setting [13] is: endpoint: median survival time, dose: 100.0 mg/kg/injection, schedule: Q01DX009 (ip), vehicle: water, higher = longer survival.
Where [14] appears, read: endpoint: median survival time, dose: 0.5 mg/kg/injection, schedule: Q01DX009 (ip), vehicle: saline, higher = longer survival.

As to `S=c1nc[nH]c2nc[nH]c12`, the T/C runs as follows: under setting [1], 103 % of control and 118 % of control; under setting [2], 100 % of control; under setting [3], 100 % of control; under setting [4], 93 % of control; under setting [5], 103 % of control; under setting [6], 91 % of control.

`O=P1(NCCCl)OCCCN1CCCl` (stereo unspecified): the T/C is 154 % of control (endpoint: median survival time, dose: 300.0 mg/kg/injection, schedule: Q01DX001 (ip), vehicle: saline, higher = longer survival) and 150 % of control (endpoint: median survival time, dose: 460.0 mg/kg/injection, schedule: Q01DX001 (ip), vehicle: saline, higher = longer survival).

As to `CS(=O)(=O)OCCCCOS(C)(=O)=O`, the T/C is 88 % of control and 100 % of control under setting [1]; 100 % of control under setting [2]; 100 % of control under setting [3]; 162 % of control (endpoint: median tumor weight (est.), dose: 12.5 mg/kg/injection, schedule: Q01DX009 (ip), vehicle: saline with Tween-80, higher = larger tumour); 97 % of control and 83 % of control (endpoint: median tumor weight (est.), dose: 25.0 mg/kg/injection, schedule: Q01DX009 (ip), vehicle: Klucel (hydroxypropylcellulose) (HPC), higher = larger tumour); 88 % of control under setting [5]. Further, the T/C under setting [7] was 61 % of control and the T/C under setting [6] is 69 % of control.

`C[C@]12C=CC(=O)C=C1CC[C@@H]1[C@@H]2C(=O)C[C@@]2(C)[C@H]1CC[C@]2(O)C(=O)CO`: the T/C under setting [8] was 95 % of control and 123 % of control; the T/C under setting [3] is 124 % of control; the T/C (endpoint: median survival time, dose: 50.0 mg/kg/injection, schedule: Q01DX009 (ip), vehicle: saline, higher = longer survival) was 116 % of control; the T/C under setting [4] was 151 % of control; the T/C (endpoint: median survival time, dose: 100.0 mg/kg/injection, schedule: Q01DX009 (ip), vehicle: saline, higher = longer survival) was 100 % of control; the T/C (endpoint: median survival time, dose: 200.0 mg/kg/injection, schedule: Q01DX009 (ip), vehicle: saline with Tween-80, higher = longer survival) was 157 % of control and 168 % of control. The T/C under setting [9] was 159 % of control; the T/C under setting [7] is 12 % of control and 30 % of control; the T/C under setting [6] was 26 % of control; the T/C (endpoint: median tumor weight (est.), dose: 100.0 mg/kg/injection, schedule: Q01DX009 (ip), vehicle: Klucel (hydroxypropylcellulose) (HPC), higher = larger tumour) was 37 % of control; the T/C under setting [10] is 41 % of control; the T/C (endpoint: median tumor weight (est.), dose: 200.0 mg/kg/injection, schedule: Q01DX009 (ip), vehicle: Klucel (hydroxypropylcellulose) (HPC), higher = larger tumour) is 22 % of control. Moreover, the T/C (endpoint: median tumor weight (est.), dose: 200.0 mg/kg/injection, schedule: Q01DX009 (ip), vehicle: saline with Tween-80, higher = larger tumour) is 12 % of control.

With `C/C=C(\C)C(=O)O[C@@H]1c2cc3c(cc2-c2c(cc(OC)c(OC)c2OC)[C@@H]2C(=O)OC[C@@H]12)OCO3`, the T/C (endpoint: median survival time, dose: 1.25 mg/kg/injection, schedule: Q01DX009 (ip), vehicle: Klucel (hydroxypropylcellulose) (HPC), higher = longer survival) was 109 % of control; the T/C (endpoint: median survival time, dose: 2.5 mg/kg/injection, schedule: Q01DX009 (ip), vehicle: Klucel (hydroxypropylcellulose) (HPC), higher = longer survival) is 101 % of control; the T/C (endpoint: median survival time, dose: 5.0 mg/kg/injection, schedule: Q01DX009 (ip), vehicle: Klucel (hydroxypropylcellulose) (HPC), higher = longer survival) is 109 % of control; the T/C (endpoint: median survival time, dose: 10.0 mg/kg/injection, schedule: Q01DX009 (ip), vehicle: Klucel (hydroxypropylcellulose) (HPC), higher = longer survival) is 101 % of control.

Turning to `Nc1ccc(N=Nc2ccccc2)c(N)c1`, the T/C is, setting by setting: under setting [8], 91 % of control; under setting [11], 106 % of control.

As for `O=C(O)CCCCC1CCSS1` (stereo unspecified), the T/C is 116 % of control and 117 % of control (endpoint: median survival time, dose: 7.81 mg/kg/injection, schedule: Q01DX009 (ip), vehicle: Klucel (hydroxypropylcellulose) (HPC), higher = longer survival); 112 % of control and 116 % of control (endpoint: median survival time, dose: 15.62 mg/kg/injection, schedule: Q01DX009 (ip), vehicle: Klucel (hydroxypropylcellulose) (HPC), higher = longer survival); 99 % of control and 100 % of control (endpoint: median survival time, dose: 125.0 mg/kg/injection, schedule: Q01DX009 (ip), vehicle: Klucel (hydroxypropylcellulose) (HPC), higher = longer survival).

`CN(C)c1ccc(C(=O)c2ccc(N(C)C)cc2)cc1`: the T/C under setting [11] was 113 % of control; the T/C (endpoint: median survival time, dose: 200.0 mg/kg/injection, schedule: Q01DX009 (ip), vehicle: Klucel (hydroxypropylcellulose) (HPC), higher = longer survival) was 98 % of control; the T/C (endpoint: median survival time, dose: 400.0 mg/kg/injection, schedule: Q01DX009 (ip), vehicle: Klucel (hydroxypropylcellulose) (HPC), higher = longer survival) is 110 % of control.

Take `NCCc1nc(-c2nc(C(=O)O)cs2)cs1`: the T/C by setting is: (endpoint: median survival time, dose: 6.25 mg/kg/injection, schedule: Q01DX009 (ip), vehicle: water, higher = longer survival) 98 % of control; (endpoint: median survival time, dose: 12.5 mg/kg/injection, schedule: Q01DX009 (ip), vehicle: water, higher = longer survival) 95 % of control; (endpoint: median survival time, dose: 25.0 mg/kg/injection, schedule: Q01DX009 (ip), vehicle: water, higher = longer survival) 91 % of control; under setting [12], 92 % of control; under setting [13], 95 % of control.

With `CC1(C)N=C(N)N=C(N)N1c1ccc(OCC(=O)Nc2ccc(S(=O)(=O)F)cc2)c(Cl)c1`, the T/C was 115 % of control (endpoint: median survival time, dose: 50.0 mg/kg/injection, schedule: Q04DX003 (ip), vehicle: saline, higher = longer survival) and 113 % of control (endpoint: median survival time, dose: 100.0 mg/kg/injection, schedule: Q04DX003 (ip), vehicle: saline, higher = longer survival).

Take `CC[C@](O)(C(=O)O)c1cc2n(c(=O)c1CO)Cc1cc3ccccc3nc1-2`: the T/C was 102 % of control (endpoint: median survival time, dose: 0.25 mg/kg/injection, schedule: Q01DX009 (ip), vehicle: saline, higher = longer survival); 102 % of control under setting [14]; 104 % of control (endpoint: median survival time, dose: 1.0 mg/kg/injection, schedule: Q01DX009 (ip), vehicle: Klucel (hydroxypropylcellulose) (HPC), higher = longer survival); 104 % of control (endpoint: median survival time, dose: 2.0 mg/kg/injection, schedule: Q01DX009 (ip), vehicle: Klucel (hydroxypropylcellulose) (HPC), higher = longer survival); 98 % of control (endpoint: median survival time, dose: 2.0 mg/kg/injection, schedule: Q01DX009 (ip), vehicle: saline, higher = longer survival).

In the case of `O=C(O)CCNSc1ccccc1[N+](=O)[O-]`, the T/C was 105 % of control (endpoint: median survival time, dose: 12.5 mg/kg/injection, schedule: Q01DX009 (ip), vehicle: saline with Tween-80, higher = longer survival); 109 % of control under setting [2]; 114 % of control under setting [3]; 100 % of control under setting [4].

Take `CN(C)CCCN1c2ccccc2Sc2ccc(Cl)cc21`: the T/C reads like this: (endpoint: median survival time, dose: 0.06 mg/kg/injection, schedule: Q01DX009 (ip), vehicle: saline, higher = longer survival) 98 % of control; (endpoint: median survival time, dose: 0.12 mg/kg/injection, schedule: Q01DX009 (ip), vehicle: saline, higher = longer survival) 92 % of control; under setting [14], 97 % of control; (endpoint: median survival time, dose: 1.0 mg/kg/injection, schedule: Q01DX009 (ip), vehicle: saline, higher = longer survival) 98 % of control.

As to `COC(=O)C(N)CCCCNc1ccc2c(cc1=O)C(NC(C)=O)CCc1cc(OC)c(OC)c(OC)c1-2` (stereo unspecified), the T/C was 118 % of control (endpoint: median survival time, dose: 53.0 mg/kg/injection, schedule: Q01DX009 (ip), vehicle: saline, higher = longer survival); 90 % of control (endpoint: median survival time, dose: 80.0 mg/kg/injection, schedule: Q01DX009 (ip), vehicle: saline, higher = longer survival); 106 % of control (endpoint: median survival time, dose: 120.0 mg/kg/injection, schedule: Q01DX009 (ip), vehicle: saline, higher = longer survival); 90 % of control (endpoint: median survival time, dose: 180.0 mg/kg/injection, schedule: Q01DX009 (ip), vehicle: saline, higher = longer survival).

On to `Nc1n[nH]c(N)n1`, for which the T/C reads like this: under setting [4], 93 % of control; under setting [9], 97 % of control; (endpoint: median survival time, dose: 800.0 mg/kg/injection, schedule: Q01DX009 (ip), vehicle: saline with Tween-80, higher = longer survival) 97 % of control; under setting [10], 100 % of control; (endpoint: median tumor weight (est.), dose: 800.0 mg/kg/injection, schedule: Q01DX009 (ip), vehicle: saline with Tween-80, higher = larger tumour) 154 % of control.

For the compound `FC(F)(F)c1nc2nc(Cl)c(Cl)nc2[nH]1`, the T/C runs as follows: (endpoint: median survival time, dose: 4.0 mg/kg/injection, schedule: Q01DX009 (ip), vehicle: saline, higher = longer survival) 109 % of control; (endpoint: median survival time, dose: 8.0 mg/kg/injection, schedule: Q01DX009 (ip), vehicle: saline, higher = longer survival) 105 % of control; (endpoint: median survival time, dose: 16.0 mg/kg/injection, schedule: Q01DX009 (ip), vehicle: saline, higher = longer survival) 118 % of control.

In the case of `CC(C)[C@](O)(C(=O)OCC1=CC[N+]2([O-])CC[C@@H](O)[C@@H]12)[C@H](C)O` (stereo partly specified), the T/C is, setting by setting: under setting [12], 95 % of control; under setting [13], 106 % of control; (endpoint: median survival time, dose: 200.0 mg/kg/injection, schedule: Q01DX009 (ip), vehicle: water, higher = longer survival) 103 % of control.
